Laboratory results from patent publication US9572760B2, “Uses of compounds and mixtures from Antrodia cinnamomea mycelia” (Simpson Biotech Co., Ltd., priority 2013, dated 2017).

Tests used:
[1] = system: pre-fibrotic genes including α-SMA, TIMP, Collagen type I and TGF-β1; assay: Real-time RT-PCR of pre-fibrotic gene expression in liver of cirrhotic animals; assay type: in vivo, Wistar rats; conditions: compound B 7 mg/kg, compound C 14 mg/kg, ACM 320 mg/kg
Description: Sample tissues of rat livers were measured about 0.5×0.5 cm in area. Each of tissue was homogenized in 1 mL of TRIzol buffer (Invitrogen, Carlsbad, Calif., USA) with a motorized pestle, and then mixed with 0.5 mL chloroform/isoamyl alcohol (24:1), and was centrifuged at 12,000×g for 10 min at 4° C. The supernatant was transferred to a fresh tube, and isopropanol was added, mix well and stored at −80° C. overnight. The reaction mixture was centrifuged at 12,000×g for 30 min at 4° C. to produce a rude RNA pallet, the pellet was washed with 70% ethanol and air-dried. The concentrations of total RNA were measured by absorbance at 260 nm using a NanoDrop ND-1000 (NanoDrop, USA). Reverse transcription reaction was performed using a commercially available set of High Capacity RNA-to-cDNA Kit (Applied Biosystems, USA). cDNA was prepared from 2 μg of total RNA per 20 μl reaction, according to the manufacturer's instructions—37° C. for 60 minutes, 95° C. for 5 minutes, and hold at 4° C. The resulting cDNA was to a final concentration of 100 ng/μl and constituted a matrix in further experiments. Amplification and detection the gene expression by real-time PCR were performed using StepOne plus Real-time PCR System (Applied Biosystems, USA). Samples were assayed in a 10 μl reaction mixture containing 2 μl of template DNA, 5 μl of 2× TaqMan PCR Master Mix (Applied Biosystems, Life Technologies, Foster City, Calif., USA), 0.5 μl of 20× assay mix containing probe, forward and reverse primer (Applied Biosystems, Life Technologies, Foster City, Calif., USA), whereby qPCR targets with the following information were used: (a) Rat α-SMA, Assay ID Rn01759928_g1, (b) Rat TIMP, Assay ID Rn00587558_m1, (c) Rat TGF-β1, Assay ID Rn00572010_m1, (d) Rat Collagen I, Assay ID Rn 01463838_m1, (e) Rat CuZnSOD, Assay ID Rn00566938_m1, (f) Rat MnSOD, Assay ID Rn00690587_g1, (g) Rat Catalase, Assay ID Rn00560930_m1, (h) Rat Glutathione peroxidase, Assay ID Rn00577994_g1, (i) Rat NADPH oxidase, Assay ID Rn00585380_m1 and (j) Rat GAPDH, Assay ID Rn1462662_g1. To control variation in mRNA concentration, all results were normalized to the housekeeping gene, GAPDH. Relative quantitation was performed using the comparative ΔΔCt method according to the manufacture's instructions. The cycling conditions used were as follows: 50° C. for 2 min, 95° C. for 10 min followed by 40 cycles of 95° C. for 15 s and 60° C. for 1 min each.

cirrhotic animals = assay: Liver fibrosis: hydroxyproline content in the liver and Sirius red staining, DEN cirrhotic animal model; conditions: compound B 7 mg/kg, compound C 14 mg/kg, ACM 320 mg/kg, vs control group
HSC = HSC proliferation by BrdU assay; assay type: cell-based; conditions: 24-80 μM; for HSC proliferation (BrdU assay): 24 h, 48 h and 72 h
Description: The Cell Proliferation ELISA, BrdU kit was designed to quantitate cell proliferation bases on the measurement of BrdU incorporation during DNA synthesis in proliferation cells. Briefly, cells (1×10^4 cells/well) were seeded in 100 μl medium in a 96-well plate (Nunc, Denmark) and cultured for 24 h to allow the cells to attach and then treated with three different concentrations ([…]) of either Compound A, B, C and D for 24 h, 48 h and 72 h and the plates were incubated in 37° C. After incubation, the culture medium was labeled with 10 μl/well BrdU (Roche Diagnostic Inc.), and the cells were reincubated for addition 16 h at 37° C. Labeling medium was removed using 10 min centrifuge at 200×g and blow dried. Cells were fixed using 200 μl FixDenat solution and incubated for 30 min at room temperature. Removing the FixDenat solution, 100 μl of anti-BrdU-POD was added and incubated for 90 min at room temperature. After the incubation period, microplates were washed three times with PBS buffer and 100 μl substrate solution was added and incubated for 30 min. Stop solution was added (25 μl of 1 M H2SO4) and absorbance of the samples was measured using ELISA reader at 450 nm.

hypertrophic scarring = assay: Rabbit ear model of hypertrophic scarring: scar and epidermal thickness, histology; assay type: in vivo, New Zealand white rabbits; conditions: for mean epidermal thickness (ETI) / mean scar thickness (SEI): 1% w/v applied to wounds every day for 14 days; for mean epidermal thickness (ETI): control 5.08±0.44; for mean scar thickness (SEI): day 14, control 3.71±0.31; for histology: dermis layer of scars: treated for 14 day, 1% w/v
Description: (§1) The rabbit ear model of hypertrophic scarring was established. In brief, 12 New Zealand white rabbits, weighing 2.5 to 3.0 kg, were prepared for wounding under sterile conditions. Four 1 cm full thickness circular wounds were created down to the cartilage on the ventral side of each ear using a 1 cm punch biopsy. The perichondrial membrane was then dissected off the cartilage using a surgical blade. The test agents including compound B, C and ACM ethanol extract were applied to the wounds of the experimental group ([…] to each wound) every day in concentrations of 1% w/v for 14 days, while the control group received equal amounts of 1% w/v saline.

collagen I and III = assay: Collagen I and collagen III quantification (ELISA) in rabbit ear scar; assay type: in vivo, New Zealand white rabbits
Description: as §1
The quantification of collagen I and III used an ELISA Kit (R & D Systems Inc., Minneapolis, Minn., USA) according to the operation manual.

CC(C)=CCOc1ccc(C2=C(CC(C)C)C(=O)N(O)C2=O)cc1 [Compound C, 3-isobutyl-4-[4-(3-methyl-2-butenyloxy)phenyl]-1H-pyrrol-1-ol-2,5-dione]
Collagen type I gene expression in liver [1]: reduced significantly
TGF-β1 gene expression in liver [1]: reduced significantly
TIMP gene expression in liver [1]: reduced significantly
α-SMA gene expression in liver [1]: reduced significantly
liver cirrhosis (hydroxyproline levels and Sirius red-positive areas) (cirrhotic animals): markedly ameliorated
HSC proliferation (BrdU assay) (HSC): markedly proliferation inhibition
mean epidermal thickness (ETI) (hypertrophic scarring): 3.10±0.14
mean scar thickness (SEI) (hypertrophic scarring): 2.10±0.24
histology: dermis layer of scars (hypertrophic scarring): not significantly thickened
collagen III density (collagen I and III; day 7, 1% w/v topical): insignificantly decreased
collagen I density (collagen I and III; day 14, 1% w/v topical): significantly decreased
collagen III density (collagen I and III; day 14, 1% w/v topical): significantly reduced

CC(C)=CCOc1ccc(C2=C(CC(C)C)C(=O)NC2=O)cc1 [Compound B, 3-isobutyl-4-[4-(3-methyl-2-butenyloxy)phenyl]-1H-pyrrol-2,5-dione]
Collagen type I gene expression in liver [1]: reduced significantly
TGF-β1 gene expression in liver [1]: reduced significantly
TIMP gene expression in liver [1]: reduced significantly
α-SMA gene expression in liver [1]: reduced significantly
liver cirrhosis (hydroxyproline levels and Sirius red-positive areas) (cirrhotic animals): markedly ameliorated
potency of effect on HSC proliferation and apoptosis compared to other compounds (HSC): most potent effect
HSC proliferation (BrdU assay) (HSC): markedly proliferation inhibition
mean epidermal thickness (ETI) (hypertrophic scarring): 2.23±0.31
mean scar thickness (SEI) (hypertrophic scarring): 1.93±0.51
histology: dermis layer of scars (hypertrophic scarring): not significantly thickened
collagen III density (collagen I and III; day 7, 1% w/v topical): insignificantly decreased
collagen I density (collagen I and III; day 14, 1% w/v topical): significantly decreased
collagen III density (collagen I and III; day 14, 1% w/v topical): significantly reduced
